# In publication PMC3759246 (Bioorganic & medicinal chemistry letters, 2013):
# Marks after values point to notes of the source that are not given here.
# Experiments:
# WT HIV-1 (IIIB) = test: microbe, parasite or virus in culture; conditions: Human immunodeficiency virus 1, IIIB, MT2, read-out: EC50 in cell assays
# [1] = cited from earlier work
Structure (SMILES),EC50 (WT HIV-1 (IIIB)) [nM],Aqueous solubility S [1]
Cc1ccnc2c1NC(=O)c1cccnc1N2C1CC1 [nevirapine],~100,
Cc1cc(C#N)cc(C)c1Oc1nc(Nc2ccc(C#N)cc2)nc(N)c1Br [etravirine],,≪ 1 ^b μg/mL
